According to patent publication US8324390B2, “Tetrazole-substituted anthranilamides as pesticides” (Bayer CropScience AG, priority 2008, dated 2012):
Like-named read-outs stand apart in the source and are kept apart here.

Legend:
[1] = test system: caterpillars of the armyworm (Spodoptera frugiperda); assay: Spodoptera frugiperda test (SPODFR spray treatment); type: in vivo; conditions: Spodoptera frugiperda, foliar, read-out: effect in % (caterpillars killed)
Excerpt: (§1) Solvent: 78.0 parts by weight of acetone

[2] = log P determination by HPLC (EEC Directive 79/831 Annex V.A8); type: physicochemical
Description: The measurements were carried out using an Agilent 1100 LC system with a 50*4.6 Zorbax Eclipse C18 1.8 μm column (oven temperature 55° C., flow rate 2.0 ml/min).
The following mobile phases were used:
Mobile phase A: acetonitrile+1000 μl of formic acid/l
Mobile phase B: Millipore water+900 μl of formic acid/l

[3] = test system: green peach aphid (Myzus persicae); assay: Myzus test (MYZUPE spray treatment); type: in vivo; conditions: Myzus persicae, foliar, read-out: effect in % (aphids killed)
Excerpt: Solvent: 78 parts by weight of acetone
as §1

[4] = test system: larvae of the mustard beetle (Phaedon cochleariae); assay: Phaedon test (PHAECO spray treatment); conditions: Phaedon cochleariae, in Brassica rapa, foliar, read-out: effect in % (beetle larvae killed)
[5] = application rate 100 g/ha, maize leaf discs
[6] = reversed-phase HPLC, Zorbax Eclipse C18 column, by HPLC according to EEC Directive 79/831 Annex V.A8, read-out: log P
[7] = application rate 100 g/ha, Chinese cabbage leaf discs
[8] = reversed-phase HPLC, Zorbax Eclipse C18 column, determined by HPLC according to EEC Directive 79/831 Annex V.A8, read-out: log P

Compound | pest or weed control at 100 g/ha ([1]; in Zea mays) | chromatographic logP ([2]; log P) | pest or weed control at 100 g/ha ([3]; in Brassica rapa) | pest or weed control at 100 g/ha [4] | pest or weed control at 100 g/ha [1, 5] | chromatographic logP [2, 6] | pest or weed control at 100 g/ha [3, 7] | chromatographic logP [2, 8]
Cc1cc(Cl)cc(C(=O)NC(C)(C)C)c1NC(=O)c1cc(C(C)n2nnnc2C(F)(F)F)nn1-c1ncccc1Cl (centres unmarked) [Example 511] | ≥ 80% | 3.75 | ≥ 80% | ≥ 80% | – | – | – | –
Cc1cc(C#N)cc(C(=O)NC(C)(C)C)c1NC(=O)c1cc(Cn2nnc(C(F)(F)F)n2)nn1-c1ncccc1Cl [Example 15] | ≥ 80% | 3.4 | ≥ 80% | ≥ 80% | – | – | – | –
O=C(NC1CC1)c1cc(Cl)cc(Cl)c1NC(=O)c1cc(Cn2nnc(C(F)F)n2)nn1-c1ncccc1Cl [Example 284] | ≥ 80% | 2.7 | ≥ 80% | ≥ 80% | – | – | – | –
Cc1cc(I)cc(C(N)=O)c1NC(=O)c1cc(Cn2nnc(C(F)(F)F)n2)nn1-c1ncccc1Cl [Example 67] | ≥ 80% | 2.95 | ≥ 80% | ≥ 80% | – | – | – | –
Cc1cc(F)cc(C(=O)NC2CC2)c1NC(=O)c1cc(Cn2nnnc2C(F)(F)F)nn1-c1ncccc1Cl [Example 169] | ≥ 80% | 2.57 | ≥ 80% | ≥ 80% | – | – | – | –
Cc1cc(C#N)cc(C(N)=O)c1NC(=O)c1cc(Cn2nnc(C(F)(F)F)n2)nn1-c1ncccc1Cl [Example 17] | ≥ 80% | 2.45 | ≥ 80% | ≥ 80% | – | – | – | –
CNC(=O)c1cc(C#N)cc(C)c1NC(=O)c1cc(Cn2nnc(C(F)(F)F)n2)nn1-c1ncccc1Br [Example 314] | – | – | – | ≥ 80% | ≥ 80% | 3.58 | ≥ 80% | –
CNC(=O)c1cc(I)cc(C)c1NC(=O)c1cc(Cn2nnnc2C(F)(F)F)nn1-c1ncccc1Cl [Example 172] | ≥ 80% | 2.86 | ≥ 80% | ≥ 80% | – | – | – | –
CCOCCNC(=O)c1cc(C#N)cc(C)c1NC(=O)c1cc(Cn2nnc(C(F)(F)F)n2)nn1-c1ncccc1Cl [Example 211] | ≥ 80% | 2.99 | ≥ 80% | ≥ 80% | – | – | – | –
Cc1cc(C#N)cc(C(=O)NC(C)C)c1NC(=O)c1cc(Cn2nnnc2C(F)(F)F)nn1-c1ccccc1Cl [Example 491] | – | – | – | ≥ 80% | ≥ 80% | – | ≥ 80% | 3.25
Cc1cc(C#N)cc(C(N)=O)c1NC(=O)c1cc(Cn2nnc(C(F)(C(F)(F)F)C(F)(F)F)n2)nn1-c1ncccc1Cl [Example 372] | ≥ 80% | 3.13 | ≥ 80% | ≥ 80% | – | – | – | –
CNC(=O)c1cc(Cl)cc(C)c1NC(=O)c1cc(C(C)n2nnnc2C(F)(F)F)nn1-c1ncccc1Cl (centres unmarked) [Example 510] | ≥ 80% | 2.86 | ≥ 80% | ≥ 80% | – | – | – | –
Cc1cc(Cl)cc(C(=O)NC(C)(C)C)c1NC(=O)c1cc(Cn2nnnc2C(F)(F)F)nn1-c1ncccc1Br [Example 484] | – | – | – | ≥ 80% | ≥ 80% | – | ≥ 80% | 3.52
CCNC(=O)c1cc(Br)cc(C)c1NC(=O)c1cc(Cn2nnnc2C(F)(F)F)nn1-c1ncccc1Br [Example 505] | – | – | – | ≥ 80% | ≥ 80% | – | ≥ 80% | 3.02
Cc1cc(Cl)cc(C(=O)NC(C)(C)C)c1NC(=O)c1cc(Cn2nnnc2C(F)(F)C(F)(F)F)nn1-c1ncccc1Cl [Example 443] | ≥ 80% | 3.92 | ≥ 80% | ≥ 80% | – | – | – | –
CC(C)NC(=O)c1cc(Cl)cc(Cl)c1NC(=O)c1cc(Cn2nnc(C(F)(F)C(F)(F)F)n2)nn1-c1ncccc1Cl [Example 153] | ≥ 80% | 3.81 | ≥ 80% | ≥ 80% | – | – | – | –
Cc1cc(C#N)cc(C(=O)NC2CC2)c1NC(=O)c1cc(Cn2nnc(C(F)(F)F)n2)nn1-c1ccccc1Cl [Example 442] | – | – | – | ≥ 80% | ≥ 80% | – | ≥ 80% | 3.29
Cc1cc(Br)cc(C(=O)NC(C)(C)C)c1NC(=O)c1cc(Cn2nnnc2C(F)(F)F)nn1-c1ncccc1Cl [Example 182] | ≥ 80% | 3.62 | ≥ 80% | ≥ 80% | – | – | – | –

Compound | pest or weed control at 100 g/ha ([1]; in Zea mays) | chromatographic logP ([2]; log P) | pest or weed control at 100 g/ha ([3]; in Brassica rapa) | pest or weed control at 100 g/ha [4] | pest or weed control at 100 g/ha [1, 5] | chromatographic logP [2, 6] | pest or weed control at 100 g/ha [3, 7] | chromatographic logP [2, 8]
CC(C)(C)NC(=O)c1cc(Cl)cc(Cl)c1NC(=O)c1cc(Cn2nnnc2C(F)F)nn1-c1ncccc1Cl [Example 471] | ≥ 80% | 3.05 | ≥ 80% | ≥ 80% | – | – | – | –
Cc1cc(C#N)cc(C(=O)NC(C)C2CC2)c1NC(=O)c1cc(Cn2nnc(C(F)(F)F)n2)nn1-c1ncccc1Cl (centres unmarked) [Example 20] | ≥ 80% | 3.33 | ≥ 80% | ≥ 80% | – | – | – | –
Cc1cc(Cl)cc(C(=O)NC(C)C)c1NC(=O)c1cc(Cn2nnc(C(F)(F)F)n2)nn1-c1ccccc1Cl [Example 427] | – | – | – | ≥ 80% | ≥ 80% | – | ≥ 80% | 3.93
CNC(=O)c1cc(Cl)cc(C)c1NC(=O)c1cc(Cn2nnnc2C(F)(F)F)nn1-c1ncccc1Cl [Example 161] | ≥ 80% | 2.63 | ≥ 80% | ≥ 80% | – | – | – | –
Cc1cc(I)cc(C(=O)NCC#N)c1NC(=O)c1cc(Cn2nnc(C(F)F)n2)nn1-c1ncccc1Cl [Example 281] | ≥ 80% | 2.68 | ≥ 80% | ≥ 80% | – | – | – | –
CNC(=O)c1cc(C#N)cc(C)c1NC(=O)c1cc(Cn2nnc(C3CC3)n2)nn1-c1ncccc1Cl [Example 102] | ≥ 80% | 2.15 | ≥ 80% | ≥ 80% | – | – | – | –
CNC(=O)c1cc(Cl)cc(C)c1NC(=O)c1cc(Cn2nnnc2C(F)(F)F)nn1-c1ncccc1Br [Example 480] | – | – | – | ≥ 80% | ≥ 80% | – | ≥ 80% | 2.79
CC(C)(C)NC(=O)c1cc(Cl)cc(Cl)c1NC(=O)c1cc(Cn2nnc(C(F)(F)F)n2)nn1-c1ncccc1Cl [Example 60] | ≥ 80% | 3.78 | ≥ 80% | ≥ 80% | – | – | – | –
CNC(=O)c1cc(C#N)cc(C)c1NC(=O)c1cc(Cn2nnnc2C(F)(F)F)nn1-c1ncccc1Br [Example 477] | – | – | – | ≥ 80% | ≥ 80% | – | ≥ 80% | 2.47
Cc1cc(C#N)cc(C(=O)NCC#N)c1NC(=O)c1cc(Cn2nnc(C(F)(F)F)n2)nn1-c1ncccc1Cl [Example 18] | ≥ 80% | 2.61 | ≥ 80% | ≥ 80% | – | – | – | –
Cc1cc(C#N)cc(C(=O)NC2CC2)c1NC(=O)c1cc(Cn2nnc(C(F)(F)C(F)(F)F)n2)nn1-c1ncccc1Cl [Example 214] | ≥ 80% | 3.26 | ≥ 80% | ≥ 80% | – | – | – | –
Cc1cc(C#N)cc(C(=O)NC(C)C)c1NC(=O)c1cc(Cn2nnc(C(F)(F)F)n2)nn1-c1ncccc1F [Example 406] | – | – | – | ≥ 80% | ≥ 80% | – | ≥ 80% | 2.88
Cc1cc(C#N)cc(C(=O)NC2CC2)c1NC(=O)c1cc(Cn2nnc(C(F)(F)F)n2)nn1-c1ncccc1Br [Example 333] | – | – | – | ≥ 80% | ≥ 80% | 2.85 | ≥ 80% | –
CNC(=O)c1cc(Cl)cc(Cl)c1NC(=O)c1cc(Cn2nnc(C(F)(F)F)n2)nn1-c1ncccc1Cl [Example 54] | ≥ 80% | 2.93 | ≥ 80% | ≥ 80% | – | – | – | –
Cc1cc(I)cc(C(=O)NC2CC2)c1NC(=O)c1cc(Cn2nnnc2C(F)(F)F)nn1-c1ncccc1Cl [Example 174] | ≥ 80% | 3.12 | ≥ 80% | ≥ 80% | – | – | – | –
C#CCNC(=O)c1cc(C#N)cc(C)c1NC(=O)c1cc(Cn2nnc(C(F)(F)F)n2)nn1-c1ncccc1Cl [Example 96] | ≥ 80% | 2.9 | ≥ 80% | ≥ 80% | – | – | – | –
CNC(=O)c1cc(C#N)cc(C)c1NC(=O)c1cc(Cn2nnc(C(F)(F)F)n2)nn1-c1cc(Cl)ccc1Cl [Example 317] | – | – | – | ≥ 80% | ≥ 80% | 3.48 | ≥ 80% | –
